# Assay results published in patent US20160051567A1, “PREVENTION AND TREATMENT OF KIDNEY DAMAGE” (METSELEX, INC., priority 2013, published 2016).
# “Also recorded” adds a separate entry of the source.
# Key:
# rat model of AKI [1] = experiment: Rat model of AKI (warm ischemia reperfusion), blood urea levels; format: in vivo; conditions: 400 mg/kg/day intraperitoneal
# Method: (§1) Rat model of AKI: All experiments were performed in accordance with the Institutional Animal Care and Use Committee. Six to eight week old Sprague-Dawley rats were anaesthetized by isoflurane gas, a midline abdominal incision was made, and bilateral renal pedicles were clamped for 45 minutes maintaining body temperature at 37° C. After removing the clamps, the abdomen was closed in two layers by using 4-0 absorbable sutures and Reflex 9 mm clips. Blood samples were obtained daily by tail vein puncture. Blood urea levels were measured by the improved Jung method using the QuantiChrom™ Urea Assay Kit as per manufacturer's protocol. Kidneys were harvested five days following surgery.
# (§2) Administration of TUDCA: 200 mg/mL of TUDCA (Sigma) was dissolved in phosphate buffered saline at pH 7.5. 400 mg/kg of TUDCA or equal volume of vehicle was administered to rats by daily intraperitoneal injection from three days prior to surgery […] to five days (day 5) following surgery. The TUDCA dose was based on previous studies and its solubility at physiological pH.
# rat model of AKI [2] = experiment: Histological injury score (PAS stain) of kidney sections after AKI; format: in vivo; conditions: five days after AKI, 400 mg/kg/day
# Method: as §1, §2
# (§3) Histology and TUNEL assay: 4% paraformaldehyde-fixed, paraffin-embedded 5 μm kidney sections were stained with Periodic acid-Schiff (PAS) stain using standard methods. Histological examination was performed by a renal pathologist in a blinded fashion. Histological injury was scored based on the percentage of tubular cell necrosis, dilation, and cell detachment as per the PAS protocol. Reagents for the PAS assay were purchased from Sigma-Aldrich (St. Louis, Mo.) and the accompanying protocol was used. […] Apoptotic cells were detected by TUNEL assay using an APO-DIRECT™ kit as per manufacturer's protocol. The average injury score and percentage of TUNEL-positive cells from the renal cortex (superficial and deep), medulla (outer and inner), and papilla were counted and calculated separately and averaged to obtain the total score. […]
# rat model of AKI [3] = experiment: TUNEL assay of kidney sections after AKI; format: in vivo
# Method: as §1, with “surgery. […]” for “surgery.”
# as §3, with “Histological examination was performed by a renal pathologist in a blinded fashion.” left out, “protocol.” for “protocol. Reagents for the PAS assay were purchased from Sigma-Aldrich (St. Louis, Mo.) and the accompanying protocol was used.”
# caspase-9 [4] = experiment: Western blot for active caspase-9 in kidney after AKI; format: in vivo; conditions: rat kidney after AKI, Western blot with densitometry, p<0.01
# Method: as §1
# (§4) Administration of TUDCA: 200 mg/mL of TUDCA (Sigma) was dissolved in phosphate buffered saline at pH 7.5. […]
# (§5) Protein extraction: Frozen kidney tissue was ground in liquid nitrogen using a pestle and mortar. […] The amount of protein present in the solution was quantified by the Bicinchoninic Acid Protein Assay kit as per manufacturer's protocol.
# (§6) Western blot analysis: 20 μg of protein was mixed with SDS-PAGE sample buffer, boiled for 5 minutes, electrophoresed on a 12% Tris-HCl SDS-PAGE gel for 1 hour at 200 V, and electroblotted onto a nitrocellulose membrane. […] The immunoblot was detected using SuperSignal West Femto Maximum Sensitivity Substrate Kit. […]
# caspase-8 [5] = experiment: Western blot for active caspase-8 in kidney after AKI; format: in vivo; conditions: rat kidney after AKI, TUDCA- vs vehicle-treated rats
# Method: as §1, §4, §5, §6
# caspase-12 = experiment: Western blot for active caspase-12 in kidney after AKI; format: in vivo; conditions: rat kidney after AKI, TUDCA- vs vehicle-treated rats
# Method: as §1, §4, §5, §6
# ERK1/2 [6] = experiment: Western blot for ERK1/2 in kidney after AKI; format: in vivo; conditions: rat kidney after AKI, vs controls, p=0.29
# Method: as §1, §4, §5, §6
# JNK [7] = experiment: Western blot for p-JNK in kidney after AKI; format: in vivo; conditions: rat kidney after AKI, TUDCA vs vehicle group
# Method: as §1, §4, §5, §6
# p38 [8] = experiment: Western blot for p-p38 in kidney after AKI; format: in vivo; conditions: rat kidney after AKI, TUDCA vs vehicle group
# Method: as §1, §4, §5, §6
# [9] = tested on: human renal proximal tubular epithelial cells (RPTE); experiment: Cytotoxicity assay (MultiTox-Glo) in RPTE cells; format: cell-based; conditions: 24 hours
# Method: (§7) Cell culture: RPTE cells were grown in Renal Epithelial Cell Basal Medium (REBM) with full supplements at 37° C. in 5% CO2 incubator as per supplier's instructions. RPTE cells were able to proliferate for 6-8 passages under the culture conditions.
# (§8) Viability and Cytotoxicity Assays: Cytotoxicity and viability were determined using MultiTox-Glo Multiplex Cytotoxicity Assay kit as per manufacturer's protocols. RPTE cells were seeded in 96-well culture plates at a density of 1.2×10^4 cells per well. Subsequently, TUDCA was added to the wells to achieve final concentrations of 15, 150, 300, 450, 600, and 1200 μM. Following 24 hours of culture, to determine viability, 50 μL of GF-AFC Reagent was added to each well. The plates were gently shaken and incubated at 37° C. for 30 minutes in the dark. The cell viability was determined by measuring fluorescence at 400 nmEx/505 nmEm. Subsequently, to determine cytotoxicity, 50 μL of AAF-Glo Reagent was added to each well. The plates were shaken gently and incubated at room temperature for 15 minutes in the dark. Cytotoxicity was determined by measuring luminescence as per manufacturer's protocol.
# [10] = tested on: human renal proximal tubular epithelial cells (RPTE); experiment: Viability assay (MultiTox-Glo) in RPTE cells; format: cell-based; conditions: 15 μM to 1200 μM, 24 hours
# Method: as §7, §8
# caspase-3 = experiment: Caspase-3 activity assay in RPTE cells after cryopreservation injury; format: cell-based, human; conditions: 150-600 μM, dose-dependent, p<0.05
# Method: as §7
# (§9) Cryopreservation injury: We have utilized a published cell culture model of cryopreservation injury. In brief, RPTE cells were grown to 80% confluence in the complete medium containing TUDCA or vehicle. The complete medium was then replaced with University of Wisconsin solution containing TUDCA or vehicle. The culture plates were subsequently incubated in a temperature-regulated refrigerator at 4° C. for 48 hours. […]
# as §5
# Caspase-3 activity assay: The caspase-3 activity in kidney and RPTE extracts was quantified using Apo-One® Homogeneous Caspase-3/7 Assay kit as per the manufacturer's protocol. […] Fluorescence was measured by Spectramax M12 fluorescent plate reader (Molecular Devices) using wavelengths of 485 nmEx/520 nmEm. […]
# caspase-9 [11] = experiment: Caspase-9 activity assay in RPTE cells after cryopreservation injury; format: cell-based, human; conditions: 100 μM and 150 μM, p<0.05
# Method: as §7
# Cryopreservation injury: We have utilized a published cell culture model of cryopreservation injury. In brief, RPTE cells were grown to 80% confluence in the complete medium containing TUDCA or vehicle. The complete medium was then replaced with University of Wisconsin solution containing TUDCA or vehicle. The culture plates were subsequently incubated in a temperature-regulated refrigerator at 4° C. for 48 hours. To simulate warm reperfusion phase of kidney transplantation, University of Wisconsin solution was replaced with complete medium containing TUDCA or vehicle, and cells were cultured for an additional 24 hours at 37° C. We used 100 μM or 150 μM of TUDCA for these experiments.
# Caspase-9 Assay: The caspase-9 activity was measured in RPTE cells using Caspase-9 Assay kit. RPTE cells were suspended in 50 μL of chilled Cell Lysis Buffer and incubated on ice for 10 minutes. Subsequently, 50 μL of 2× Reaction Buffer and 5 μL of 1 mM LEHD-AFC substrate was added to each sample and the mixtures were incubated at 37° C. for 2 hours. The caspase-9 activity was quantified by measuring […].
# caspase-8 [12] = experiment: Western blot for caspase-8 in RPTE cells after cryopreservation injury; format: cell-based, human
# Method: Cell culture: RPTE cells were grown in Renal Epithelial Cell Basal Medium (REBM) with full supplements at 37° C. in 5% CO2 incubator as per supplier's instructions. RPTE cells were able to proliferate for 6-8 passages under the culture conditions. Cryopreservation injury: We have utilized a published cell culture model of cryopreservation injury. In brief, RPTE cells were grown to 80% confluence in the complete medium containing TUDCA or vehicle. The complete medium was then replaced with University of Wisconsin solution containing TUDCA or vehicle. The culture plates were subsequently incubated in a temperature-regulated refrigerator at 4° C. for 48 hours. To simulate warm reperfusion phase of kidney transplantation, University of Wisconsin solution was replaced with complete medium containing TUDCA or vehicle, and cells were cultured for an additional 24 hours at 37° C. We used 100 μM or 150 μM of TUDCA for these experiments. Protein extraction: Frozen kidney tissue was ground in liquid nitrogen using a pestle and mortar. […] The amount of protein present in the solution was quantified by the Bicinchoninic Acid Protein Assay kit as per manufacturer's protocol. […] The immunoblot was detected using SuperSignal West Femto Maximum Sensitivity Substrate Kit. […]
# procaspase-12 = experiment: Western blot for procaspase-12 in RPTE cells after cryopreservation injury; format: cell-based, human
# Method: as §7, §9, §5, §6
# ERK1/2 [13] = experiment: Western blot for phosphorylated ERK1/2 in RPTE cells after cryopreservation injury; format: cell-based, human
# Method: as §7, §9, §5, §6
# JNK [14] = experiment: Western blot for JNK in RPTE cells after cryopreservation injury; format: cell-based, human; conditions: 100 and 150 μM
# Method: as §7, §9, §5, §6
# p38 [15] = experiment: Western blot for p38 in RPTE cells after cryopreservation injury; format: cell-based, human; conditions: 100 and 150 μM
# Method: as §7, §9, §5, §6
# cell culture = conditions: has been shown; cited from earlier work
# [16] = TUDCA over UDCA; cited from earlier work
smiles,measurement,setting,value
"C[C@H](CCC(=O)NCCS(=O)(=O)O)[C@H]1CC[C@H]2[C@@H]3[C@@H](O)C[C@@H]4C[C@H](O)CC[C@]4(C)[C@H]3CC[C@]12C [TUDCA, tauroursodeoxycholic acid]",elevation in blood urea levels vs vehicle group,rat model of AKI [1]; days 1 (p<0.001) and 2 (p<0.01) following AKI,significantly less elevation in blood urea levels
same,blood urea vs vehicle group,rat model of AKI [1]; days 3-5 following AKI,"blood urea was lower in the TUDCA-treated rats, the difference was not statistically significant"
same,histological injury vs vehicle-treated rats,"rat model of AKI [2]; deep cortex, p<0.001",significantly less injury
same,histological injury vs vehicle-treated rats,rat model of AKI [2]; medulla or papilla,no differences
same,histological injury vs vehicle-treated rats,"rat model of AKI [2]; superficial cortex, p<0.05",significantly less injury
same,TUNEL-positive cells vs vehicle-treated rats,"rat model of AKI [3]; outer strip of the outer medulla, p<0.001",significantly less TUNEL-positive cells
same,TUNEL-positive cells vs vehicle-treated rats,"rat model of AKI [3]; superficial and deep cortices, p<0.05",significantly less TUNEL-positive cells
same,activation of caspase-9 (mitochondrial pathway of apoptosis),caspase-9 [4],significantly inhibited
same,activation of caspase-8 (death-receptor pathway),caspase-8 [5],no significant difference
same,activation of caspase-12 (ER-stress pathway),caspase-12,no significant difference
same,activation of ERK1/2,ERK1/2 [6],"increased ERK1/2 levels in two out of three rats; also recorded: increased activation of ERK1/2 in the TUDCA group, although without statistical significance"
same,amount of p-JNK,JNK [7],No difference
same,amount of p-p38,p38 [8],No difference
same,cytotoxicity,"[9]; 1200 μM, p<0.05",cytotoxic
same,cytotoxicity,[9]; 15 to 600 μM,did not cause cytotoxicity
same,cell viability,[10],None of the tested concentrations of TUDCA decreased cell viability
same,caspase-3 activation after cryopreservation injury,caspase-3,significantly inhibited
same,caspase-9 activation after cryopreservation injury,caspase-9 [11],significantly inhibited
same,activation of procaspase-8 (death receptor pathway),caspase-8 [12],no effect
same,activation of procaspase-12 (ER-stress pathway),procaspase-12,no effect
same,activation of ERK1/2 (phosphorylated ERK1/2),"ERK1/2 [13]; 100 μM, p<0.05",activated ERK1/2
same,activation of ERK1/2 (phosphorylated ERK1/2),"ERK1/2 [13]; 150 μM, p<0.01",activated ERK1/2
same,effect on JNK,JNK [14],no effect
same,effect on p38,p38 [15],no effect
same,safe concentrations in cell culture experiments,cell culture,safe in concentrations ranging from 100 nM up to 5 mM
same,solubility at physiological pH compared with UDCA,[16],higher solubility at physiological pH
